Experimental findings from article PMC11859264, “Discovery of a Novel Multitarget Analgesic Through an In Vivo-Guided Approach” (Pharmaceuticals, 2025) are described below.

Data set [1] relates to spinal nerve ligation (SNL) model. Briefly: Spinal nerve ligation (SNL) neuropathic pain model, von Frey paw withdrawal threshold. The data set is classed as in vivo. The following applies: SNL rats; for maximum possible effect (MPE), withdrawal threshold: 3 h after administration. From the text: The SNL model, also known as the Chung model, is a widely used animal model for studying neuropathic pain, a chronic pain condition resulting from nervous system damage. This model replicates human neuropathic pain, which can stem from nerve injuries due to conditions like diabetes, shingles, or spinal cord injury. In the SNL model, the L5 or L6 spinal nerve is surgically ligated to induce nerve injury, leading to the development of long-lasting neuropathic pain symptoms in the animal. Following the nerve injury, animals display pain-related behaviors that mirror those seen in human neuropathic pain conditions, such as allodynia and hyperalgesia. Behavioral assessments conducted 14 days after surgery evaluate the animal’s sensitivity to mechanical stimuli using Von Frey filaments to quantify pain responses and measure mechanical allodynia.
In this experiment, compound 29 was administered intraperitoneally at two different doses, 50 and 100 mg/kg, and its analgesic effects were assessed by measuring the 50% withdrawal threshold at multiple time points (1, 3, and 5 h post-administration) (Figure 3A). […]
Spinal nerve ligation (SNL) was performed following the method described by Kim and Chung. […] Following the surgery, the rats were returned to their cages and monitored during recovery.
Behavioral signs indicative of neuropathic pain (mechanical allodynia) were assessed in all rats for two weeks postoperatively. The paw withdrawal threshold (PWT) was measured using von Frey filaments (Stoelting, Wood Dale, IL, USA) and the up–down method. […] A brisk withdrawal or paw flinching was recorded as a positive response. […]
Figure 3 Antinociceptive effect of compound 29 on mechanical allodynia in SNL model rats. (A) The mechanical allodynia was induced by spinal nerve ligation and evaluated by measuring paw withdrawal thresholds in response to von Frey filament stimuli. […] The MPE was calculated using the following formula: MPE (%) = [(post-treated value − pre-treatment threshold) × 100]/(maximum possible threshold − pre-treatment threshold). Data are expressed as mean ± SEM. […]

Data set [2] in a line: In vivo pharmacokinetic study. Details: species or system Sprague–Dawley rats. The following applies: rats; for AUC(0-inf) / AUC(0-t) / CL/F / Cmax / Tmax / half-life: male, Sprague-Dawley, rat, plasma. How it is done: The in vivo pharmacokinetics parameters of compound 29 were measured in rats over 24 h following intraperitoneal (IP) and oral (PO) administration (Figure 4). These experiments were conducted to evaluate the compound’s absorption, distribution, metabolism, and excretion profiles under different routes of administration. Male Sprague–Dawley rats (n = 3 per group, weight 200–250 g) were fasted overnight but had free access to water. All animal experiments were conducted in accordance with institutional guidelines. For intraperitoneal (IP) administration, compound 29 was dissolved in saline and DMSO, while for oral (PO) administration, the compound was suspended in 0.5% carboxymethyl cellulose (CMC). All solutions were freshly prepared and filtered before administration to ensure homogeneity. Compound 29 was administered at 5 mg/kg via intraperitoneal injection or at 10 mg/kg by oral gavage. […] Blood was collected into EDTA-coated tubes and centrifuged at 2000× g for 10 min at 4 °C to separate plasma. Plasma samples were stored at −80 °C until analysis. Before analysis, plasma samples were thawed on ice, and proteins were precipitated using acetonitrile containing an internal standard. The mixture was centrifuged, and the supernatant was collected for analysis. Plasma concentrations of compound 29 were determined using a validated LC-MS/MS method. […] Quantification was performed in Multiple Reaction Monitoring (MRM) mode using Xcalibur software (version 4.4). Pharmacokinetic parameters, including AUClast, AUCinf, Cmax, Tmax, t1/2, Cl/F, and Vd, were calculated using non-compartmental analysis (NCA) with Phoenix WinNonlin software 8.5.2 (Certara, Radnor, PA, USA).

The target of data set [3] is CYP2C19 (Homo sapiens, UniProt P33261). The data set can be described thus: in vitro. The following applies: microsomes, pH 7.4, CYP2C19 % of inhibition.
Sequence of CYP2C19 (P33261 whole entry): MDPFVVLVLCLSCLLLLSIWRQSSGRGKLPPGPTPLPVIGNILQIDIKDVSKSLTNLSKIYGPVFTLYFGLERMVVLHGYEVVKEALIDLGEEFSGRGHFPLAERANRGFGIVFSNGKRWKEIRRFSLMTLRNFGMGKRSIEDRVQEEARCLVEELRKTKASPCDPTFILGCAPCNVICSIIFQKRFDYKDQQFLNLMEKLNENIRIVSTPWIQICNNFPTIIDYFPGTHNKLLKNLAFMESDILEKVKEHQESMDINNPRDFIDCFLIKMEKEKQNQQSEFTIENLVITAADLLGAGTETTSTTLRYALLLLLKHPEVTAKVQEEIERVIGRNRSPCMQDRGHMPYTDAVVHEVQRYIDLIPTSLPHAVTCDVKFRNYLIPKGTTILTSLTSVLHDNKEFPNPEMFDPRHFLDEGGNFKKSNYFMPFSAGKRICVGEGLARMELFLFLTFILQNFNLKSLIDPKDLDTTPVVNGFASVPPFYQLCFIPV
For data set [4], the target named is CYP2C9 (Homo sapiens, UniProt P11712). Briefly: in vitro. To be noted: microsomes, pH 7.4, CYP2C9 % of inhibition.
Sequence of CYP2C9 (P11712 whole entry): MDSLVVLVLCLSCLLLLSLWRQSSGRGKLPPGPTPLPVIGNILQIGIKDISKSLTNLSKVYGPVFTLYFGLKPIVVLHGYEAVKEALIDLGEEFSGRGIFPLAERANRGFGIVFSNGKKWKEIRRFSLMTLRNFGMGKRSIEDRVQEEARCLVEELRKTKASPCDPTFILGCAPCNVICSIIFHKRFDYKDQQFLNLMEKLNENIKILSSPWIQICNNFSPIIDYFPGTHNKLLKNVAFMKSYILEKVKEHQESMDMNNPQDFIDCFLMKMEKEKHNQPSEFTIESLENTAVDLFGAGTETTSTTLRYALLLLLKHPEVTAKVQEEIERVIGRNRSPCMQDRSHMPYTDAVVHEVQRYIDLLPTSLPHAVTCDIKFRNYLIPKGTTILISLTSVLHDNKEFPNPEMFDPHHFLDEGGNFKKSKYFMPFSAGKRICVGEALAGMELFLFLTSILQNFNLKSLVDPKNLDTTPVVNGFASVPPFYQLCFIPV
Data set [5] in a line: Metabolic stability assay in liver microsomes. The following applies: 30 min. The class given is in vitro ADME. As to the method:
In the in vitro metabolic stability study, the stability of compound 29 was evaluated using liver microsomes derived from both mouse and human sources. The primary objectives of this study were to determine the metabolic clearance rate of compound 29 over a defined time period, enabling an assessment of its intrinsic clearance. Microsomal incubations were performed, and the percentage of intact compound remaining was quantified at specific time points. […] The remaining substrate was quantified using the Nexera XR system (Shimadzu, Japan) and TSQ Vantage mass spectrometer (Thermo, Waltham, MA, USA). […] Metabolites were analyzed using the Multiple Reaction Monitoring (MRM) quantification mode in the Xcalibur software (version 4.4). The experiment was performed in duplicate with variability within 15%. Results were calculated as % remaining by comparing the test compound quantified after a 30 min reaction to the initial value at 0 min.
For orientation: Liver microsomes are a subcellular fraction often used to study metabolism.

The target of data set [6] is hERG (Homo sapiens, UniProt Q12809). Briefly: in vitro.
Sequence of hERG (Q12809 whole entry): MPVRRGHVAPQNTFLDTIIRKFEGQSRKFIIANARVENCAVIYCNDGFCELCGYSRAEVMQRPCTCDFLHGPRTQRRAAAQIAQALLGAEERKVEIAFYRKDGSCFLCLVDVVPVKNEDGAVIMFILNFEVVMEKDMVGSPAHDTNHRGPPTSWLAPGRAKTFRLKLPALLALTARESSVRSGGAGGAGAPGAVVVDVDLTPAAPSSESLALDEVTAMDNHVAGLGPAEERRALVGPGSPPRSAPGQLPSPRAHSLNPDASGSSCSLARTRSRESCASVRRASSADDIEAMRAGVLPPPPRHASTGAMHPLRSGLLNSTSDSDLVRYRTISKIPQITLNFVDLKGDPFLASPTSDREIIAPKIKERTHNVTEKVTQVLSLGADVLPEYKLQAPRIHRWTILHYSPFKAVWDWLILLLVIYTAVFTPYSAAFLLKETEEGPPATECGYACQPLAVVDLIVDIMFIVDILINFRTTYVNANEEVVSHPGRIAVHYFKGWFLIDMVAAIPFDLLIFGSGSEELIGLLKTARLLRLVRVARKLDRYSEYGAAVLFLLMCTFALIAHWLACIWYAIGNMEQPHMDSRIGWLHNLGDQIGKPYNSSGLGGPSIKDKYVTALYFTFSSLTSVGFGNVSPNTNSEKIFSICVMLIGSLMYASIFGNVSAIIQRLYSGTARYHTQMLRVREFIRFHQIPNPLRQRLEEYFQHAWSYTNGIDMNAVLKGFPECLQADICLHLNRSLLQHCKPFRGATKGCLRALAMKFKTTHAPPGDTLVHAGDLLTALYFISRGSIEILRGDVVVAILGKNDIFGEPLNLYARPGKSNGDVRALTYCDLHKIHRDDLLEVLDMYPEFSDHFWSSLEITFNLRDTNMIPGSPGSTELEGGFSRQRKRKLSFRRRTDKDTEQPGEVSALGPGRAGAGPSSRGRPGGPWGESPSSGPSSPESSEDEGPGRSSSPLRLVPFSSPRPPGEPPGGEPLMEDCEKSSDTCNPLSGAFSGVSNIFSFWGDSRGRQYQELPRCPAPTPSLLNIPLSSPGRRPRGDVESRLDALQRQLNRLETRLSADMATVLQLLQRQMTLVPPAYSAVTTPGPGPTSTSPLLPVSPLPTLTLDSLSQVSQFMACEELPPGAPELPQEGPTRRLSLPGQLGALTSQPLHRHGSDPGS

Each structure is given as a SMILES string.

One may read the AUC(0-inf) as total exposure, with the tail of the curve extrapolated. The low end stands for low exposure, the high end for high exposure. By AUC(0-t) is commonly meant exposure summed from dosing to a finite time, without extrapolation to infinity. A word on the CL/F: it is clearance divided by bioavailability, as obtained after extravascular dosing. For orientation: Cmax means the highest concentration seen after dosing. As usually defined, the Tmax is the time from dosing to the highest level. The term half-life denotes the time needed for the level to fall by half in the phase considered. As a reminder, the inhibition is how much of the control response was suppressed. Higher therefore signals a strong effect. The fraction remaining is what is left of the initial amount, in per cent. A lower fraction remaining goes with a greater loss. Take `N#Cc1ccc2[nH]cc(C(=O)NCCN3CCN(c4ccc5ccccc5n4)CC3)c2c1` [Compound 29, 5-Cyano-N-(2-(4-(quinolin-2-yl)piperazin-1-yl)ethyl)-1H-indole-3-carboxamide]: in data set [1] (50 mg/kg intraperitoneal), the “maximum possible effect (MPE), withdrawal threshold” value was 24%. The “maximum possible effect (MPE), withdrawal threshold” value in data set [1] (100 mg/kg intraperitoneal) was found to be 45%. In data set [1] (50 and 100 mg/kg intraperitoneal), the “time of most pronounced analgesic effect (Tmax)” value amounted to 3 h. Further, in data set [2] (IP, 5 mg/kg), the AUC(0-inf) was 1380 ng·h/mL, the AUC(0-t) came out at 1030 ng·h/mL, the CL/F was 64.7 mL/min/kg and the highest level (Cmax) was 208 ng/mL. Moreover, in data set [2] (IP, 5 mg/kg), the Tmax turned out to be 2.83 h, the half-life was 3.49 h and the Vd is 17.9 L/kg. Also, in data set [2] (PO, 10 mg/kg), the AUC(0-inf) was 430 ng·h/mL, the AUC(0-t) was found to be 407 ng·h/mL, the CL/F was 401 mL/min/kg and the concentration peaked (Cmax) at 113 ng/mL. Also, in data set [2] (PO, 10 mg/kg), the Tmax amounted to 1.5 h, the half-life is 1.67 h and the Vd is recorded as 57.4 L/kg. Also, the inhibition at 15 min, 10 µM in data set [3] is < 50%. In data set [4], the inhibition at 15 min, 10 µM was < 50%. Also, in data set [5] (pH 7.4, human liver microsomes), the fraction remaining at 0.5 h, 1 µM is 55.6%. For the same compound, the amount remaining at 0.5 h, 1 µM in data set [5] (pH 7.4, mouse liver microsomes) came to 51.2%. This compound returned an inhibition at 4 h, 10 µM in data set [6] of 52.7%.
